The values that follow come from patent publication US20090238808A1, “Process for the identification of novel enzyme interacting compounds” (priority 2005, published 2009).

Common to all, as to test: Kinobeads elution with test compound, mouse brain lysate, MS
What all share (type): binding
What all share (conditions): kinase released from kinobeads by specific elution

Assay [1] has as its target T1, p38a (Mus musculus, UniProt P47811).
T1 construct: from tissue; host or cells: mouse brain
The method, boiled down: (§1)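 Read-out is mass-spectrometric identification of proteins released from kinobeads by non-modified test compound. Beads had captured mouse brain lysate proteins under near-physiological conditions; after washing, elution used 1.0 mM compound for 30 min at 4° C against a 2% DMSO or DMF control.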

The target of assay [2] is ARG (Mus musculus, UniProt Q4JIM5). The method, boiled down:
as §1

The target of assay [3] is T2, p38b (Mus musculus, UniProt Q9WUI1).
T2 construct: from tissue; host or cells: mouse brain
T2 sequence (Q9WUI1 whole entry): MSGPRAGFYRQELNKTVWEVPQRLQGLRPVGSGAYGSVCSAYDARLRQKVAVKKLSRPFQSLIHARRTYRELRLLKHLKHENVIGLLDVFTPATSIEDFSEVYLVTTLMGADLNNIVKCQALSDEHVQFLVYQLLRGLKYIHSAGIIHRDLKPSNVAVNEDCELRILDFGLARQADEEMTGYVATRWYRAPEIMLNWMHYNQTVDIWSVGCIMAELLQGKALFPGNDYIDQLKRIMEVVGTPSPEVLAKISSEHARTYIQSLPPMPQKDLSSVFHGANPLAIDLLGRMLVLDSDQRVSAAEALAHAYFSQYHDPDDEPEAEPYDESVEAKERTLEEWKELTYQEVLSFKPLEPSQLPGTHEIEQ
In short, it runs like this:
as §1

Assay [4] deals with T3, TRKB (Mus musculus, UniProt P15209).
T3 construct: from tissue; host or cells: mouse brain
T3 sequence (P15209 32-821): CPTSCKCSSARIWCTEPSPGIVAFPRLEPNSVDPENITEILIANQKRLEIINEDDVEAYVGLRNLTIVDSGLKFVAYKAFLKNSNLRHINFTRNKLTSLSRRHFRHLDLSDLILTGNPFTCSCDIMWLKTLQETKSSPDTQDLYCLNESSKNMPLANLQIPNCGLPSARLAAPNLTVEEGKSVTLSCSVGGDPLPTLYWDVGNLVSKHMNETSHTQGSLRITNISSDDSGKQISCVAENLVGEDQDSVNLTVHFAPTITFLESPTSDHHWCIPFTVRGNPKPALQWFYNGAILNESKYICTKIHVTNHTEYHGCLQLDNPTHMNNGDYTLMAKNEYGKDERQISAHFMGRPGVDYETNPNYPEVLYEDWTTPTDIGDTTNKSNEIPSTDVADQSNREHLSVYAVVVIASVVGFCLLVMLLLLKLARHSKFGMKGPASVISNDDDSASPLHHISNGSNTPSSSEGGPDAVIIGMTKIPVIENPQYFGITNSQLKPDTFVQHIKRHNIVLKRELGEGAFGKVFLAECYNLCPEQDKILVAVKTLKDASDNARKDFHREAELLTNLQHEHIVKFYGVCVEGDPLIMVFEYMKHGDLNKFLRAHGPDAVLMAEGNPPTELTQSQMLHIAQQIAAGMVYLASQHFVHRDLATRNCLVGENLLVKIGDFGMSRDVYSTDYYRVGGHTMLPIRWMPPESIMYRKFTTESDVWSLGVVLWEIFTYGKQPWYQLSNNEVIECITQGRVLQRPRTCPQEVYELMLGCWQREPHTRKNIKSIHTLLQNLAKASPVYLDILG
The text has this: This example illustrates competitive elution of proteins bound to kinobeads with non-modified test compounds (see particularly the fourth aspect of the invention).
The kinobeads were contacted with mouse brain lysate under conditions that allow the binding of the proteins in the lysate to the ligands. The binding conditions were close to physiological by choosing suitable buffer conditions preserving the function of the proteins. After removing non-captured proteins through a gentle washing procedure the bound proteins were contacted with a test compound for protein elution.
Various test compounds (see section 2.7) were used to release bound proteins following these steps:
1. Resuspend beads with bound proteins (section 2.4) in 1×DP buffer/0.2% NP-40 as 1:3 slurry (volume/volume). 2. Transfer 20 μl the 1:3 slurry into MoBiTech columns (equivalent to 5 μl of beads). 3. Place the column into an Eppendorf tube and centrifuge it for 15 seconds at 800 rpm at 4° C. Close columns with lower lid. 4. Add 10 μl elution buffer containing 1.0 mM of the test compound (concentration ranges of 0.1 to 1.0 mM are suitable). As a control use elution buffer containing 2% DMSO or 2% DMF dependent on the solvent used for dissolving the test compound. Close column with upper lid. 5. Incubate for 30 minutes at 4° C. in an Eppendorf incubator at 700 rpm. 6. […] To harvest the eluate centrifuge 2 minutes at 2.000 rpm in table top centrifuge at room temperature. The typical volume of the eluate is approximately 15 μl. 7. Add 5 μl 4× NuPAGE SDS Sample Buffer (Invitrogen, NP0007) containing 100 mM DTT (DTT has to be added just prior to use). 8. Incubate for 30 minutes at 50° C. 9. Add 1/10 volume of 200 mg/ml iodoacetamide, incubate for 30 min at room temperature, protect from light. This reaction leads to the alkylation of cysteines for mass spectrometry. 10. Before loading samples onto the gel, centrifuge samples for 5 minutes at 15.000 rpm in order to remove precipitates. 11. […] 2.6 Preparation of Stock Solutions used in this Protocol
Search criteria varied depending on which mass spectrometer was used for the analysis.

The target in assay [5] is T4, EphB1 (Mus musculus, UniProt Q8CBF3).
T4 sequence (Q8CBF3 18-984): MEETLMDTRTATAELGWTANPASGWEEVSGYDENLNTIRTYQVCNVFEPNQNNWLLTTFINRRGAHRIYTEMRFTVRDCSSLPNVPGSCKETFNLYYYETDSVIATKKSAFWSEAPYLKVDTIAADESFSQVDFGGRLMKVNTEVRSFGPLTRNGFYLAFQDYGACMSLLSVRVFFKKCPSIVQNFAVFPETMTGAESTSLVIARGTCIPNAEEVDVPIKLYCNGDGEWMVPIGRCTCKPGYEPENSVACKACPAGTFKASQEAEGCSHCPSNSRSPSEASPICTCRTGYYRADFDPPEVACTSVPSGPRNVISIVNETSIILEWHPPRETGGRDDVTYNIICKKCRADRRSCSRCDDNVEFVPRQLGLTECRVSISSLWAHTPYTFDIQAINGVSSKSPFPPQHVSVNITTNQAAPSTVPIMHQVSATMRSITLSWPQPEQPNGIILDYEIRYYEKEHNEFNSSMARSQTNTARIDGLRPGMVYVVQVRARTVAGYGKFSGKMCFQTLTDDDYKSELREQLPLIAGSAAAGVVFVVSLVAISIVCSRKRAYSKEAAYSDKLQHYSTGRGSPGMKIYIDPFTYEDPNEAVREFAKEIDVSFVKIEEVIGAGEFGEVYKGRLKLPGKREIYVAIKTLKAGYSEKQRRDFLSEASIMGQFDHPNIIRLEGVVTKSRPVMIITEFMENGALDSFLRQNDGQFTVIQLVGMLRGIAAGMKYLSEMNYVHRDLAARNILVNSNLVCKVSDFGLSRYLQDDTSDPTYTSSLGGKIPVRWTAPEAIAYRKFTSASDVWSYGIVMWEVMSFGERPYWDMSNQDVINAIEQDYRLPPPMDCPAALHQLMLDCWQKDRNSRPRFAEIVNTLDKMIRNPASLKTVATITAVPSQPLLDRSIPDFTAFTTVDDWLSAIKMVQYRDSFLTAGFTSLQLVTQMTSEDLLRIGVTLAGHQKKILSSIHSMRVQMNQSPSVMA
In short, it runs like this: as §1

T1 sequence (P47811 whole entry): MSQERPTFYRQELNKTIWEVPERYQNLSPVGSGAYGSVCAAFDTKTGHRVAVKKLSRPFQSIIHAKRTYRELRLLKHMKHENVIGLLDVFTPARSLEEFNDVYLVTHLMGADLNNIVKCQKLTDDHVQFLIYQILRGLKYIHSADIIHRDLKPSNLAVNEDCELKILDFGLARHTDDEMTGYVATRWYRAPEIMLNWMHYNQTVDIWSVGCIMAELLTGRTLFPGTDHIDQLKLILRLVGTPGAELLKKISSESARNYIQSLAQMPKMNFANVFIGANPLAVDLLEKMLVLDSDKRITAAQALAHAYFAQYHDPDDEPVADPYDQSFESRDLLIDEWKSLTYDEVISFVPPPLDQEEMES
Sequence of ARG (Q4JIM5 whole entry): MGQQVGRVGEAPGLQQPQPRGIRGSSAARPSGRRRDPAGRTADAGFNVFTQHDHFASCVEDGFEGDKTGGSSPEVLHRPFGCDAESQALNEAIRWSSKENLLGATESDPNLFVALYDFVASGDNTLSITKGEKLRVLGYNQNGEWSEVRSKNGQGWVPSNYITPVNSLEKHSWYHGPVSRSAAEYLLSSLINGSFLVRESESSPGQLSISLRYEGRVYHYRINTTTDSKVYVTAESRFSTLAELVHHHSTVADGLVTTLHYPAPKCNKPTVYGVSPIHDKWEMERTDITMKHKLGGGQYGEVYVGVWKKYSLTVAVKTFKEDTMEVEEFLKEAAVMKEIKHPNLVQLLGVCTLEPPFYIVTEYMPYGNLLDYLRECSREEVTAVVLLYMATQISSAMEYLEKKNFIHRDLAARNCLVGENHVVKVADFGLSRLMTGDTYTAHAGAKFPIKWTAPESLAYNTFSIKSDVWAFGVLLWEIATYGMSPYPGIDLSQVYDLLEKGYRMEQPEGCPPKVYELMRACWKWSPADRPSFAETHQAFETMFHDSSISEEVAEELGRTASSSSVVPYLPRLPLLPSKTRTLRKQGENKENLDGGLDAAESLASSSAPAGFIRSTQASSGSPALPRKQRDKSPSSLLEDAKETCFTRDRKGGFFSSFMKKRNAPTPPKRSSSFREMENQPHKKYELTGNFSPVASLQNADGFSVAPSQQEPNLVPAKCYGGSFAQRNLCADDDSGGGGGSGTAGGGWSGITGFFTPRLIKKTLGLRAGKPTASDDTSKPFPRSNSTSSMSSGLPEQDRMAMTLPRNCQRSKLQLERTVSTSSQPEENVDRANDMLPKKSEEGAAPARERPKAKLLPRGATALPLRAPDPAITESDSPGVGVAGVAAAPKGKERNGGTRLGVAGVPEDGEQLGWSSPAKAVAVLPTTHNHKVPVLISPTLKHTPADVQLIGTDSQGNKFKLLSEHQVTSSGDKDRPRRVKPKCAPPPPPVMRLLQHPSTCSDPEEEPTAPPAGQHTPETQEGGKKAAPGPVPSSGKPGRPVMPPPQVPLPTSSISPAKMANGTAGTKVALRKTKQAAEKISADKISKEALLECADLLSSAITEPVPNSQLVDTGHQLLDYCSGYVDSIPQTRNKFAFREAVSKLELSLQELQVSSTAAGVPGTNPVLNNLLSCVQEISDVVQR

For the compound `Cn1c(=O)c(-c2c(Cl)cccc2Cl)cc2cnc(Nc3ccc(CN)cc3)cc21` [CZC7324], in assay [1], the “mass spectrometry score, p38a” value was determined as 127 and the “number of identified peptides, p38a” value is given as 6. Moreover, in assay [2], the “mass spectrometry score, ARG” value is listed as 59 and the “number of identified peptides, ARG” value amounted to 2. Also, in assay [3], the “mass spectrometry score, p38b” value was determined as 60 and the “number of identified peptides, p38b” value came to 1.
Take `CNC1CC2OC(C)(C1OC)n1c3ccccc3c3c4c(c5c6ccccc6n2c5c31)C(=O)NC4` (stereo not shown) [CZC9280]: the “number of identified peptides, TRKB” value in assay [4] turned out to be 4.
For the compound `CC(C)[C@H](CO)Nc1nc(Nc2ccc(C(=O)O)c(Cl)c2)c2ncn(C(C)C)c2n1` [Purvalanol B, reference compound], in assay [4], the “mass spectrometry score, TRKB” value amounted to 207 and the “number of identified peptides, TRKB” value is 4. In assay [5], the “mass spectrometry score, EphB1” value is given as 366 and the “number of identified peptides, EphB1” value amounted to 10.
In the case of `CCCCCCCCCCCCOS(=O)(=O)[O-].[Na+]` [SDS], in assay [1], the “mass spectrometry score, p38a” value stood at 104 and the “number of identified peptides, p38a” value was determined as 7. In assay [2], the “mass spectrometry score, ARG” value worked out at 452 and the “number of identified peptides, ARG” value was 28. Moreover, in assay [3], the “mass spectrometry score, p38b” value was 95 and the “number of identified peptides, p38b” value was determined as 3. Moreover, in assay [5], the “mass spectrometry score, EphB1” value came out at 180 and the “number of identified peptides, EphB1” value came out at 10.
